Results published in patent EP0001978A1, “A derivative of thiazolidine-4-carboxylic acid, method for the preparation and pharmaceutical compositions comprising the compound” (Santen Pharmaceutical Co., Ltd, priority 1977, dated 1979).

Key:
[1] = target: T1, angiotensin I-converting enzyme (Cavia porcellus, UniProt H0UWL7); assay: Bioassay: contractile response of isolated guinea-pig ileum to angiotensin I; assay type: cell-based; settings: angiotensin I 0.125µg/ml, compound added 5 minutes before; for inhibition at 1 µM: final concentration 10^-6 M
T1 construct: Preparation of isolated guinea-pig ileum was made and suspended in the organ bath; from tissue; host or cells: isolated guinea-pig ileum
T1 sequence (H0UWL7 33-1302): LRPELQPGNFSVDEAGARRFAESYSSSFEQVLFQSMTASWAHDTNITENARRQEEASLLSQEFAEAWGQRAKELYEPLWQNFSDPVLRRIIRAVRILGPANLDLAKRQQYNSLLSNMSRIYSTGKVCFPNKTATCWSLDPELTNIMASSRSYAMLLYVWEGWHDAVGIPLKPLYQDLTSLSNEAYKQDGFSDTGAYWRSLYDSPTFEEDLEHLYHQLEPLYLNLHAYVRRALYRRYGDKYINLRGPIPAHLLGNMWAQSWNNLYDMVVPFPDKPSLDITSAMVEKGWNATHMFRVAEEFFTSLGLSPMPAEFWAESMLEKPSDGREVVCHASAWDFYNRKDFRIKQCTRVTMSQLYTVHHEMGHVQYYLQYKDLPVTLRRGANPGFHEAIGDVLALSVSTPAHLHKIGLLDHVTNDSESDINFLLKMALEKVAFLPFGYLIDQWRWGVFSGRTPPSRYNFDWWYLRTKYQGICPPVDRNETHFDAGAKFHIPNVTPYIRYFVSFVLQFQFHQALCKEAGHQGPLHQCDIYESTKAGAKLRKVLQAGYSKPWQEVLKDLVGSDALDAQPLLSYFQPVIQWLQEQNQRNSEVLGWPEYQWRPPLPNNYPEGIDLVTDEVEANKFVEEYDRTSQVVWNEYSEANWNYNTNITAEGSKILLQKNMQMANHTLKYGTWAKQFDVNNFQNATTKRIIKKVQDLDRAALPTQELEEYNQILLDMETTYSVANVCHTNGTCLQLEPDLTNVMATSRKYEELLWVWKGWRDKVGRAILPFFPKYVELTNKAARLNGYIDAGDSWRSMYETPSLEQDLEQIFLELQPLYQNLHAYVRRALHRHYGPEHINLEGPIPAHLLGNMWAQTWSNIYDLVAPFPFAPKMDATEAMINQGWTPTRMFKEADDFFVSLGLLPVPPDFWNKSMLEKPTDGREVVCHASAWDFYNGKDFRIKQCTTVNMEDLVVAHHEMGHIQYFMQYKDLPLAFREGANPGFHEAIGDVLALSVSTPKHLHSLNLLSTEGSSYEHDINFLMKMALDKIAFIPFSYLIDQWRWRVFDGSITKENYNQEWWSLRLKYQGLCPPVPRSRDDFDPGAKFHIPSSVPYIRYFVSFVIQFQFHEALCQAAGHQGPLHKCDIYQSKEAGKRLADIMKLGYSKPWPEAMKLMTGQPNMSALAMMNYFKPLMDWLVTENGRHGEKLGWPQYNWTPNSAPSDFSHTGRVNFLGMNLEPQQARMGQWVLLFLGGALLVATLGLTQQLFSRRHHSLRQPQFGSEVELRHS
Method: In the present study, we adopted the bioassay for contractile response of iselated guinea-pig ileum to angiotensin I.
(§1) Measurement of inhibitory activity of angiotensin I-converting enzyme Preparation of isolated guinea-pig ileum was made and suspended in the organ bath containing 20ml of Tyrode's solution gassed 95% 02 + 5% CO2 at 30°C. The contraction induced by angiotensin I (0.125µg/ml) given at intervals of 10 minutes was recorded on a recticerder (Nihon Koden) for 90 seconds using FD pick up (ST-IT-H, Nihon Koden) .
(§2) The test compounds were added to the bath 5 minutes before the addition of angiotensin I.
The inhibitory activity of angiotensin I-converting enzyme was calculated by the following formula: [formula] • A: Contractile intensity of angiotensin I before addition of the compound • B: Contractile intensity of angiotensin I after addition of the compound

kininase II = target: T2, kininase II (Cavia porcellus, UniProt H0UWL7); assay: Augmentation of contractile response of isolated guinea-pig ileum to bradykinin; assay type: cell-based
T2 construct: Preparation of isolated guinea-pig ileum was made and suspended in the organ bath; from tissue; host or cells: isolated guinea-pig ileum
T2 sequence (H0UWL7 33-1302): T1 sequence (H0UWL7 33-1302)
Method: as §1, §2
(§3) The influence of the compounds on the contractile response of isolated guinea-pig ileum to angiotensin II was examined in the same manner as above. Further, augmentation of the contractile response to bradykinin by the test compounds was studied by the above-mentioned method from the fact that kininase II which destroys bradykinin is thought to be identical with angiotensin I-converting enzyme.

angiotensin II = assay: Contractile response of isolated guinea-pig ileum to angiotensin II; assay type: cell-based; settings: Cavia porcellus, final concentration 10^-5 M
Method: as §1, §2, §3

male ddy-SLC strain rats = assay: Acute toxicity test (Miller and Tainter method); assay type: in vivo; settings: oral, subcutaneous or intravenous; 30% suspension or 30% solution (pH 7.0); result in words
Method: Acute toxicity of the compound of this invention, (4R)-3-[(2S)-3-mercapto-2-methylpropanoyl]-4-thiazolidinecarboxylic acid, is shown in Table 3.
The male ddy-SLC strain rats (5 weeks of age, weighing […]) were placed in a breeding room of constant temperature and humidity (24+1°C, 55+5%) and fed freely pellet diet (CE-2, Clea Japan Inc.) and water for a week. The rats showing the normal growth were selected for the experiment.
30% suspension or 30% solution (pH 7.0) was administered orally, subcutaneously or intravenously and the toxicity was calculated by the Miller and Tainter method.

inhibition at 10 µM ([1]; final concentration 10^-5 M) [%]	SMILES	inhibition at 1 µM [1] [%]	inhibition at 0.1 µM ([1]; final concentration 10^-7 M) [%]	Augmentation to BK (%) (kininase II; final concentration 10^-7 M)	Augmentation to BK (%) (kininase II; final concentration 10^-8 M)	Augmentation to BK (%) (kininase II; final concentration 10^-9 M)	inhibition at 10 µM (angiotensin II) [%]	Acute toxicity (male ddy-SLC strain rats)
–	C[C@H](CS)C(=O)N1CSC[C@H]1C(=O)O [Compound A, (4R)-3-[(2S)-3-mercapto-2-methylpropanoyl]-4-thiazolidinecarboxylic acid]	72.6	38.1	125.3	60.4	22.1	0	lower toxicity
59.3	C[C@@H](CS)C(=O)N1CSC[C@H]1C(=O)O [Compound B, (4R)-3-[(2R)-3-mercapto-2-methylpropanoyl]-4-thiazolidinecarboxylic acid, reference compound]	24.7	–	78.3	16.8	–	0	–
